Source: PMC5522084, “Eg5 inhibitor YL001 induces mitotic arrest and inhibits tumor proliferation” (Oncotarget, 2017)

Key:
Eg5 = Eg5 (Homo sapiens, UniProt P52732); assay: Inhibition of Eg5 ATPase activity; type: biochemical; conditions: read-out: Enzyme EC50
Procedure: All experiments were performed as previously described. Data were analyzed using GraphPad Prism 5 and Microsoft Excel to obtain EC50 values. […] Each inhibitory concentration was measured in triplicate, and averaged data points ± SD are shown.

Eg5 motor domain = biological target: T1, Eg5 motor domain (Homo sapiens, UniProt P52732); assay: SPR assay (Biacore T200); type: binding; conditions: SPR Biacore T200, 25°C
T1 sequence (P52732 18-359 limits assumed): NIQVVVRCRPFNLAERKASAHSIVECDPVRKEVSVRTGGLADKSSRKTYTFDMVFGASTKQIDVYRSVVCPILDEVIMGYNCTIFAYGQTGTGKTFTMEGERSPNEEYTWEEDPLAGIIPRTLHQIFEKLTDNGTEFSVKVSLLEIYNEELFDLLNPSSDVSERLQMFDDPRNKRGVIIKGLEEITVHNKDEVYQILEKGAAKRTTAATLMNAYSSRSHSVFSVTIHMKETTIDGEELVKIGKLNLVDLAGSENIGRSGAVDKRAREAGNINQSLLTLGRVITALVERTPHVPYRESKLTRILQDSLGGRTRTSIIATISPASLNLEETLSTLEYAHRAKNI
Procedure: Interactions of the Eg5 motor domain and compounds of interest were analyzed using the Biacore T200 system (GE Healthcare, Uppsala, Sweden) at 25°C. Eg5 motor protein obtained as previously described (51) was immobilized on a sensor chip (CM5) using an amine coupling kit (GE Healthcare, Buckinghamshire, UK). […] For binding studies, analytes were applied at corresponding concentrations in running buffer at a flow rate of 30 μL/minute with a contact time of 60 seconds and a dissociation time of 60 seconds. Chip platforms were washed with running buffer and 50% DMSO. Data were analyzed with Biacore evaluation software (T200 Version 1.0) by curve fitting using a steady state 1:1 binding model and a kinetic model.

K562 = assay: Antiproliferation assay (Alamar Blue), K562; type: cell-based; conditions: Homo sapiens; K562, leukemia; read-out: EC50 of YL001
Procedure: (§1) Cytotoxic activities of the compounds of interest were investigated with human cancer cell lines using the Alamar Blue assay. Cells (5 × 10^3 cells/well) were seeded into 96-well plates (Corning, 3603). Various sample concentrations (compounds of interest) were added to each well in duplicate, and incubated at 37°C with 5% CO2 for two days such that cells were in the exponential growth phase at the time of drug addition. Ten microliters of the Alamar Blue Solution (Invitrogen, Alamar Blue) were added to each well and incubated at 37°C for up to 2 hours in a humidified, 5% CO2 atmosphere. After incubation, florescence was measured using a microplate reader (Tecan) at an excitation wavelength of 540 nm and emission of 590 nm. Each inhibitory concentration was measured in triplicate, and averaged data points ± SD are shown. Statistical analysis was carried out with GraphPad Prism 5 and the fifty-percent effective concentration is expressed as EC50.

CNE-2Z = assay: Antiproliferation assay (Alamar Blue), CNE-2Z; type: cell-based; conditions: Homo sapiens, CNE2Z, nasopharyngeal cancer, read-out: EC50 of YL001
Procedure: as §1

Huh7 = assay: Antiproliferation assay (Alamar Blue), Huh7; type: cell-based; conditions: Homo sapiens, Huh-7; Huh7, liver cancer; read-out: EC50 of YL001
Procedure: as §1

B16 = assay: Antiproliferation assay (Alamar Blue), B16; type: cell-based; conditions: B16, mouse melanoma; read-out: EC50 of YL001
HCT116 = assay: Antiproliferation assay (Alamar Blue), HCT116; type: cell-based; conditions: Homo sapiens, HCT-116; HCT116, colon cancer; read-out: EC50 of YL001
Procedure: as §1

DU145 = assay: Antiproliferation assay (Alamar Blue), DU145; type: cell-based; conditions: Homo sapiens, DU-145; DU145, prostate cancer; read-out: EC50 of YL001
Procedure: as §1

786-O = assay: Antiproliferation assay (Alamar Blue), 786-O; type: cell-based; conditions: Homo sapiens, 786-0, renal cancer, read-out: EC50 of YL001
Procedure: as §1

A2780/taxol = assay: Antiproliferation assay (Alamar Blue), A2780/taxol; type: cell-based; conditions: Homo sapiens, taxol resistant ovarian cancer, read-out: EC50 of YL001
Procedure: as §1

4T1/6TG = assay: Antiproliferation assay (Alamar Blue), 4T1/6TG; type: cell-based; conditions: 6TG resistant mouse breast cancer, read-out: EC50 of YL001
HeLa cells = assay: Colony formation; type: cell-based; conditions: Homo sapiens, exposed 24 hours, cultured 10 days
Procedure: HeLa cells (5 × 10^2 cells/well) were seeded into 6-well plates and were treated with a series of gradient concentrations of YL001 for 24 hours, followed by washing and continual culture for 10 days. DMSO was used as a negative control, and STLC was used as a positive control. Cells were fixed with ethanol for more than 30 minutes and dyed with crystal violet for more than 30 minutes. Clones were counted with OpenCFU [54].

[1] = system: panel of 468 typical, atypical and mutant human kinases; assay: Kinase profiling (KINOMEscan, DiscoverX); type: binding; conditions: 468 kinases, 1 μM
Procedure: Kinase profiling was conducted by the DiscoverX as KINOMEscan profiling service for testing the inhibition of YL001 of interest against 468 kinases. Selectivity score S(35) was defined as follows:
S(35) = (number of non-mutant kinases with% Control < 35)/(number of non-mutant kinases tested).

[2] = Nucleophilic addition assay; conditions: incubated with cysteine and lysine for 24 hours at 37°C
Procedure: 0.5 mmol YL001 was solved in a solution of THF/H2O (v:v = 1:1) and stirred with nucleophiles (0.5 mmol L-cysteine or L-lysine) at 37°C for 24 hours. Products were then validated by HRMS.

B16 melanoma xenograft = B16 melanoma xenograft model; type: in vivo
Procedure: B16 cells (1 × 10^6 cells) were inoculated s.c. into 6-week old C57BL/6 mice. Tumor volume was calculated as: V = 1/2× L (long axis)×W^2 (short axis). When the volume of tumor was between 50 to 100 mm^3, YL001 was administered i.p. daily on days 1 to 10 at 200 mg/kg. Doses and schedules were determined by tolerance studies. Mice were kept under specific pathogen-free conditions, and all animal experiments were approved by the Committee on Animal Research at our institute.
Vehicle (10% (v%) N,N-Dimethylacetamide (DMAC) in 200 μL olive oil per 20 g mouse) was administered daily i.p. as a control on days 1 to 10. Drug efficiency was expressed as the ratio of the mean experimental V/V0 value to that of the control group [treated versus control (T/C) ratio], where V is the tumor volume on the day of evaluation and V0 is the tumor volume on the day of initial treatment with the drug. Drug efficiency was also evaluated by median survival. All statistical analysis was performed using Graphpad Prism 5.

Eg5, sequence (P52732 whole entry): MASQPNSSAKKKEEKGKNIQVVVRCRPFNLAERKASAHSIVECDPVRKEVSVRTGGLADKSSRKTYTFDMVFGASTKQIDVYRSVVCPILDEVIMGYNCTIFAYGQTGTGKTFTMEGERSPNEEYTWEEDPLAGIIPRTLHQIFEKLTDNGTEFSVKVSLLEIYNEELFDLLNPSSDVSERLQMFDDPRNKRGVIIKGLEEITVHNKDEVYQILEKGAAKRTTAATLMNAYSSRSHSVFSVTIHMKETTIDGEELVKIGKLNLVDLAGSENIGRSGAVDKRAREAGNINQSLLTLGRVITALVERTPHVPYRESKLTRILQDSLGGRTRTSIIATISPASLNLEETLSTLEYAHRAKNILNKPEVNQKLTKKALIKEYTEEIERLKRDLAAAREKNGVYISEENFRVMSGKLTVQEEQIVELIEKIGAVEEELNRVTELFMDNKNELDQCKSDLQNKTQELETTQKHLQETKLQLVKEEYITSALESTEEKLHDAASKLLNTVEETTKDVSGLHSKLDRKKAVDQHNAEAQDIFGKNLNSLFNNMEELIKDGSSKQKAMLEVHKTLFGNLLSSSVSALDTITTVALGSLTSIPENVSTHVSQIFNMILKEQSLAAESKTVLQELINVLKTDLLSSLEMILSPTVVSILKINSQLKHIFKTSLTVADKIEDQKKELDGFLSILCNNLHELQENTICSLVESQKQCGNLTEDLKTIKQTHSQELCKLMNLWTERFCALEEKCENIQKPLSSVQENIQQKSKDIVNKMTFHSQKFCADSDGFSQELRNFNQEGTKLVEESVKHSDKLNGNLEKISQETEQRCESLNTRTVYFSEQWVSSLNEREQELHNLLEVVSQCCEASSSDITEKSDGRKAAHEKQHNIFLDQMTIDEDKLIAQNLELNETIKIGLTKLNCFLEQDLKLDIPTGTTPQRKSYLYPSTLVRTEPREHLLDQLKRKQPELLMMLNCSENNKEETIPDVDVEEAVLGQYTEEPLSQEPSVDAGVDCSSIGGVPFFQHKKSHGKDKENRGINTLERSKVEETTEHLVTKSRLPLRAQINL

Cc1ccc(-n2nnnc2/C(=C/N(C)C)C(=O)c2cccc(C(F)(F)F)c2)cc1 [YL001, (Z)-3-(dimethylamino)-2-(1-(p-tolyl)-1H-tetrazol-5-yl)-1-(3-(trifluoromethyl)phenyl)prop-2-en-1-one]
EC50 (Eg5): 1.18 µM
Kd (Eg5 motor domain): 0.133 µM
EC50 (K562): 9.76 ± 0.52 µM
EC50 (CNE-2Z): 5.94 ± 0.02 µM
EC50 (Huh7): 14.6 ± 0.82 µM
EC50 (B16): 13.9 ± 5.03 µM
EC50 (HCT116): 9.04 ± 2.19 µM
EC50 (DU145): 26.5 ± 0.27 µM
EC50 (786-O): 14.7 ± 0.62 µM
EC50 (A2780/taxol): 20.1 ± 0.68 µM
EC50 (4T1/6TG): 20 ± 0.5 µM
IC50 (HeLa cells): 0.124 µM
activity against kinase panel [1]: no activity
reaction with nucleophiles (new products by HRMS) [2]: no new products were detected
adverse effects / toxicity (B16 melanoma xenograft; 200 mg/kg i.p. daily for 10 days, body weight): no adverse effects were observed
minimum T/C ratio (B16 melanoma xenograft; 200 mg/kg i.p. daily for 10 days, tumor volume): 0.40
Medium survival time (B16 melanoma xenograft; 200 mg/kg, B16 tumor-bearing mice): > 33 days
tumor growth inhibition (B16 melanoma xenograft; xenograft mouse model, 200 mg/kg i.p. daily): 60%
